Data set [1] is described as follows: refractive index (Na D-line) (dimensionless). Conditions: 293.15 K; 101.33 kPa; Liquid; Standard Abbe refractometry.
The conditions of data set [2]: Liquid; Ebulliometric method (Recirculating still).

The source of these data is the NIST ThermoML archive (doi:10.1021/je700705d).

The structures appear in SMILES notation. Numbers after ± are expanded uncertainties.

By refractive index is commonly meant the speed of light in vacuum divided by its phase velocity in the sample. Regarding `CC(O)C(C)O` (centres undefined) [2,3-butanediol], the refractive index in data set [1] is 1.4375 ± 0.0007. In addition, in data set [2], the Normal boiling temperature turned out to be 181.06 ± 0.2 °C.
For `CCCCOC(C)=O` [butyl ethanoate] the same measures were 1.3941 ± 0.0007 and 125.96 ± 0.2 °C.
